Results published in patent US5278308A, “Iodine derivatives of tetrabenazine” (The Trustees of The University of Pennsylvania, priority 1992, dated 1994).
Like-named read-outs stand apart in the source and are kept apart here.

Assays:
[1] = Protein binding by TCA (10% rat plasma, 30 min, 37° C.); format: in vitro ADME; details: rat, 10% plasma, TCA precipitation
Procedure: One ml of 10% rat plasma was mixed with [^123 I]I-TBZ in a test tube and the mixture was incubated for 30 minutes at 37° C. To the mixture 0.4 mL of 10% trichloroacetic acid (TCA) was added. The test tube was centrifuged for 10 min. (4,000 rpm), and the top aqueous layer was removed to another test tube for counting The precipitate was washed with water (0.5 mL×2). The combined water and top aqueous layer was counted. The residual precipitate was also counted. The protein binding was obtained by dividing counts in precipitate with counts in aqueous layers.

[2] = Protein binding by Filter (50% rat plasma, Amicon micropartition system); format: in vitro ADME; details: rat, 50% plasma, 30 min, 37° C.
Procedure: One mL of rat plasma (50%) was mixed with [^123 I]I-TBZ in a test tube. After 30 min incubation at 37° C., 50 uL ×3 of liquid was removed as initial dose standard (I.D.); the rest was passed through an Amicon micropartition system (Amicon division, W. R. Grace, Danvers, Mass.) by centrifuging for 20 minutes (2,000 rpm) at 0° C. Four samples (50 uL each) were removed from the filtered solution and counted. The protein binding (% bound) was calculated by using the unit counts in filtrate divided by unit counts in ID.

[3] = Biodistribution in rats (iv injection); format: in vivo; details: rat, iv
Procedure: While under ether anesthesia, each rat was injected in the femoral vein with 0.2 mL saline solution containing [^123 I]I-TBZ (1-5uCi) either racemic mixture, peak-A or peak-B. The rats were sacrificed at various time points postinjection by cardiac excision. The tissues were weighed and the radioactivity was measured with a Canberra gamma counter (Model 5000). The percent dose per organ was calculated by a comparison of the tissue counts to suitably diluted aliquots of the injected material. Total activities of blood and muscle were calculated assuming that they were 7% and 40% of total body weight, respectively Results are presented in Tables 3, 4A and 4B.

[4] = Regional brain distribution in rats (dissection, iv injection); format: in vivo; details: for Str./Cb (% dose/gram ratio) / Regional brain uptake, Rem / Regional brain uptake, cerebellum / Regional brain uptake, cortex / Regional brain uptake, hippocampus / Regional brain uptake, striatum / tissue uptake at 5 min / tissue uptake at 20 min: rat
Procedure: Regional brain distribution of [^123 I]I-TBZ (with either a racemic mixture, peak A or B) in rats was obtained after an iv injection. By dissecting, weighing and counting samples from different brain regions (cortex, striatum, hippocampus and cerebellum), % dose/gram of the samples was calculated by comparing the sample counts with the counts of the diluted initial dose. The ratio of uptake in each region was obtained by dividing % dose/gram of each region with that of the cerebellum. The effect of tetrahydrobenazine on the uptake of peak A or peak B was investigated by pretreating the rats with the TBZ 3 mg/rat at 3 min before iv injection of [^123 I]I-TBZ. At 20 min. post injection the rats were dissected and the regional brain dissection was carried out as above.

[5] = 20 min, pretreated with TBZ 3 min before, n = 2
[6] = 120 min, listed as I-TBZ peak A

fraction unbound at 0.5 h [1]: 0.619
fraction unbound at 0.5 h [2]: 0.182
Brain uptake ([3]; 2 min): 1.2 % Dose/organ
Blood uptake (blood assumed 7% of body weight) ([3]; 5 min): 2.15 ± 0.11 % Dose/organ
Br/Bl (% dose/gram ratio) ([3]; 5 min): 5.51 ± 0.37
Brain uptake ([3]; 5 min): 1.12 ± 0.15 % Dose/organ
Heart uptake ([3]; 5 min): 0.91 ± 0.17 % Dose/organ
Kidney uptake ([3]; 5 min): 4.43 ± 0.56 % Dose/organ
Liver uptake ([3]; 5 min): 21.23 ± 2.66 % Dose/organ
Lung uptake ([3]; 5 min): 2.85 ± 0.52 % Dose/organ
Muscle uptake (muscle assumed 40% of body weight) ([3]; 5 min): 11.96 ± 1.56 % Dose/organ
Skin uptake ([3]; 5 min): 8.72 ± 1.52 % Dose/organ
Spleen uptake ([3]; 5 min): 0.62 ± 0.13 % Dose/organ
Thyroid uptake ([3]; 5 min): 0.08 ± 0.01 % Dose/organ
Blood uptake (blood assumed 7% of body weight) ([3]; 20 min): 1.42 ± 0.56 % Dose/organ
Br/Bl (% dose/gram ratio) ([3]; 20 min): 4.59 ± 1.10
Brain uptake ([3]; 20 min): 0.58 ± 0.01 % Dose/organ
Heart uptake ([3]; 20 min): 0.49 ± 0.04 % Dose/organ
Kidney uptake ([3]; 20 min): 2.21 ± 0.11 % Dose/organ
Liver uptake ([3]; 20 min): 16.16 ± 4.71 % Dose/organ
Lung uptake ([3]; 20 min): 1.65 ± 0.11 % Dose/organ
Muscle uptake (muscle assumed 40% of body weight) ([3]; 20 min): 26.79 ± 7.14 % Dose/organ
Skin uptake ([3]; 20 min): 9.00 ± 5.10 % Dose/organ
Spleen uptake ([3]; 20 min): 0.44 ± 0.06 % Dose/organ
Thyroid uptake ([3]; 20 min): 0.05 ± 0.01 % Dose/organ
Blood uptake (blood assumed 7% of body weight) [3, 5]: 2.05 ± 0.21 % Dose/organ
Br/Bl (% dose/gram ratio) [3, 5]: 4.10 ± 0.27
Brain uptake [3, 5]: 0.85 ± 0.12 % Dose/organ
Heart uptake [3, 5]: 0.61 ± 0.11 % Dose/organ
Kidney uptake [3, 5]: 2.03 ± 0.24 % Dose/organ
Liver uptake [3, 5]: 13.34 ± 4.06 % Dose/organ
Lung uptake [3, 5]: 1.74 ± 0.002 % Dose/organ
Muscle uptake (muscle assumed 40% of body weight) [3, 5]: 29.70 ± 2.56 % Dose/organ
Skin uptake [3, 5]: 7.08 ± 2.33 % Dose/organ
Spleen uptake [3, 5]: 0.06 ± 0.07 % Dose/organ
Thyroid uptake [3, 5]: 0.08 ± 0.01 % Dose/organ
Blood uptake (blood assumed 7% of body weight) ([3]; 60 min): 1.14 ± 0.16 % Dose/organ
Br/Bl (% dose/gram ratio) ([3]; 60 min): 3.05 ± 0.12
Brain uptake ([3]; 60 min): 0.33 ± 0.07 % Dose/organ
Heart uptake ([3]; 60 min): 0.38 ± 0.07 % Dose/organ
Kidney uptake ([3]; 60 min): 1.52 ± 0.28 % Dose/organ
Liver uptake ([3]; 60 min): 10.12 ± 1.26 % Dose/organ
Lung uptake ([3]; 60 min): 1.17 ± 0.06 % Dose/organ
Muscle uptake (muscle assumed 40% of body weight) ([3]; 60 min): 21.88 ± 2.74 % Dose/organ
Skin uptake ([3]; 60 min): 14.76 ± 4.35 % Dose/organ
Spleen uptake ([3]; 60 min): 0.36 ± 0.04 % Dose/organ
Thyroid uptake ([3]; 60 min): 0.07 ± 0.01 % Dose/organ
Blood uptake (blood assumed 7% of body weight) ([3]; 120 min): 0.95 ± 0.03 % Dose/organ
Br/Bl (% dose/gram ratio) ([3]; 120 min): 1.96 ± 0.43
Brain uptake ([3]; 120 min): 0.18 ± 0.04 % Dose/organ
Heart uptake ([3]; 120 min): 0.26 ± 0.03 % Dose/organ
Kidney uptake ([3]; 120 min): 1.05 ± 0.1q
Liver uptake ([3]; 120 min): 7.54 ± 0.77 % Dose/organ
Lung uptake ([3]; 120 min): 0.81 ± 0.14 % Dose/organ
Muscle uptake (muscle assumed 40% of body weight) ([3]; 120 min): 18.56 ± 2.34 % Dose/organ
Skin uptake ([3]; 120 min): 11.22 ± 3.92 % Dose/organ
Spleen uptake ([3]; 120 min): 0.23 ± 0.04 % Dose/organ
Thyroid uptake ([3]; 120 min): 0.07 ± 0.05 % Dose/organ
Str./Cb (% dose/gram ratio) ([4]; 5 min, listed as I-TBZ peak A): 1.09
Regional brain uptake, Rem ([4]; 20 min, listed as I-TBZ peak A): 0.395 ± 0.019 % Dose/g
Regional brain uptake, cerebellum ([4]; 20 min, listed as I-TBZ peak A): 0.362 ± 0.017 % Dose/g
Regional brain uptake, cortex ([4]; 20 min, listed as I-TBZ peak A): 0.420 ± 0.031 % Dose/g
Regional brain uptake, hippocampus ([4]; 20 min, listed as I-TBZ peak A): 0.414 ± 0.032 % Dose/g
Regional brain uptake, striatum ([4]; 20 min, listed as I-TBZ peak A): 0.479 ± 0.014 % Dose/g
Str./Cb (% dose/gram ratio) ([4]; 20 min, listed as I-TBZ peak A): 1.32
Str./Cb (% dose/gram ratio) [4, 5]: 1.12
Regional brain uptake, Rem ([4]; 60 min, listed as I-TBZ peak A): 0.229 ± 0.036 % Dose/g
Regional brain uptake, cerebellum ([4]; 60 min, listed as I-TBZ peak A): 0.225 ± 0.029 % Dose/g
Regional brain uptake, cortex ([4]; 60 min, listed as I-TBZ peak A): 0.234 ± 0.035 % Dose/g
Regional brain uptake, hippocampus ([4]; 60 min, listed as I-TBZ peak A): 0.230 ± 0.048 % Dose/g
Regional brain uptake, striatum ([4]; 60 min, listed as I-TBZ peak A): 0.271 ± 0.046 % Dose/g
Str./Cb (% dose/gram ratio) ([4]; 60 min, listed as I-TBZ peak A): 1.21
Regional brain uptake, Rem [4, 6]: 0.118 ± 0.022 % Dose/g
Regional brain uptake, cerebellum [4, 6]: 0.116 ± 0.026 % Dose/g
Regional brain uptake, cortex [4, 6]: 0.129 ± 0.019 % Dose/g
Regional brain uptake, hippocampus [4, 6]: 0.113 ± 0.041 % Dose/g
Regional brain uptake, striatum [4, 6]: 0.138 ± 0.022 % Dose/g
Str./Cb (% dose/gram ratio) [4, 6]: 1.19
tissue uptake at 5 min ([4]; brain remainder, 5 min, read-out: Regional brain uptake, Rem): 0.74 ± 0.063 %ID/g
tissue uptake at 20 min ([4]; brain remainder, 20 min, pretreated with TBZ 3 min before, n = 2, read-out: Regional brain uptake, Rem): 0.545 ± 0.047 %ID/g
tissue uptake at 5 min ([4]; cerebellum, 5 min, read-out: Regional brain uptake, cerebellum): 0.708 ± 0.044 %ID/g
tissue uptake at 20 min ([4]; cerebellum, 20 min, pretreated with TBZ 3 min before, n = 2, read-out: Regional brain uptake, cerebellum): 0.534 ± 0.032 %ID/g
tissue uptake at 5 min ([4]; cortex, 5 min, read-out: Regional brain uptake, cortex): 0.792 ± 0.096 %ID/g
tissue uptake at 20 min ([4]; cortex, 20 min, pretreated with TBZ 3 min before, n = 2, read-out: Regional brain uptake, cortex): 0.585 ± 0.067 %ID/g
tissue uptake at 5 min ([4]; hippocampus, 5 min, read-out: Regional brain uptake, hippocampus): 0.725 ± 0.066 %ID/g
tissue uptake at 20 min ([4]; hippocampus, 20 min, pretreated with TBZ 3 min before, n = 2, read-out: Regional brain uptake, hippocampus): 0.581 ± 0.075 %ID/g
tissue uptake at 5 min ([4]; striatum, 5 min, read-out: Regional brain uptake, striatum): 0.77 ± 0.019 %ID/g
tissue uptake at 20 min ([4]; striatum, 20 min, pretreated with TBZ 3 min before, n = 2, read-out: Regional brain uptake, striatum): 0.596 %ID/g
SMILES: COc1cc2c(cc1OC)C1CC(O)(C=C[123I])C(CC(C)C)CN1CC2 (single isomer, unassigned) [Peak A]
Regional distribution / selectivity in rat brain (in words) [4]: significantly increased selective regional distribution
